Measured values as given in ChEMBL document CHEMBL1157550, “Incorporation of fluorinated phenylalanine generates highly specific inhibitor of proteasome's chymotrypsin-like sites” (J Med Chem, 2010).
Activity calls are given as the source filed them. The calls are words filed in the database; no cut-off is given here.

Tests used:
[1] = target: Proteasome Macropain subunit (Homo sapiens) (UniProt P49721); assay: (§1) Inhibition of 26S proteasome beta 2 in human HEK293 cell lysate assessed as residual activity at […] after 1 hr; type: cell-free
Chain of Proteasome Macropain subunit (Homo sapiens) (P49721 whole entry): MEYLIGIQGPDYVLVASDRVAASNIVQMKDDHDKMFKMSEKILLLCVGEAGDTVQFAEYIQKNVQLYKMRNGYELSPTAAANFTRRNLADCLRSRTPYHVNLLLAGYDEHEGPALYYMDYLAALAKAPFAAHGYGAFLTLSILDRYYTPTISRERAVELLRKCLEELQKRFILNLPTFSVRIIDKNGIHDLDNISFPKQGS

[2] = target: T1, Proteasome Macropain subunit MB1 (Homo sapiens) (UniProt P28074); assay: Displacement of fluorescent labeled MV151 from 26S proteasome beta 5 in human HEK293 cell lysate assessed as disappearance of band at 0.1 to 1 uM after 1 hr by SDS-PAGE; type: cell-free
T1 sequence (whole entry): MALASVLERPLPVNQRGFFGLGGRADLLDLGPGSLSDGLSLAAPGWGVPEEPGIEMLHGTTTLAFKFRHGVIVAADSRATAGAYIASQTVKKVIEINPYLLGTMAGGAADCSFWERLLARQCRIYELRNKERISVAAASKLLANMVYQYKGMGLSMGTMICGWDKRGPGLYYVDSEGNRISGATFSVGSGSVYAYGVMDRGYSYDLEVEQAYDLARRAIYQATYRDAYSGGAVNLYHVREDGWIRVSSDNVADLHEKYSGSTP

[3] = target: Proteasome Macropain subunit (Homo sapiens) (UniProt P49721); assay: Inhibition of 26S proteasome beta 2 in human HEK293 cell lysate assessed as residual activity at 13.5 uM after 1 hr; type: cell-free
[4] = target: Proteasome Macropain subunit (Homo sapiens) (UniProt P49721); assay: Inhibition of 26S proteasome beta 2 in human HEK293 cell lysate assessed as residual activity at 0.001 uM after 1 hr; type: cell-free
[5] = target: Proteasome subunit beta type-5 (Homo sapiens) (UniProt P28074); assay: Inhibition of 26S proteasome beta 5 in human HEK293 cell lysate assessed as residual activity at […] after 1 hr
[6] = target: Proteasome subunit beta type-5 (Homo sapiens) (UniProt P28074); assay: Inhibition of 26S proteasome beta 5 in human HEK293 cell lysate assessed as residual activity at 13.5 uM after 1 hr
[7] = target: T2, Proteasome component C5 (Homo sapiens) (UniProt P20618); assay: Inhibition of 26S proteasome beta 1 in human HEK293 cell lysate assessed as residual activity at 0.001 uM after 1 hr; type: cell-free
T2 sequence (whole entry): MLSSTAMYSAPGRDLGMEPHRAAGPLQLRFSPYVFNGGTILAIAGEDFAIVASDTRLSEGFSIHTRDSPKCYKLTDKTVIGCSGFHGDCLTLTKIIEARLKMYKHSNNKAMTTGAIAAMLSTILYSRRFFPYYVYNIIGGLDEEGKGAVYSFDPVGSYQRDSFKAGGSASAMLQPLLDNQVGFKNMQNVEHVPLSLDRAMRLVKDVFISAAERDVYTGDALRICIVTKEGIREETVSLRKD

[8] = target: T2, Proteasome component C5 (Homo sapiens); assay: Inhibition of 26S proteasome beta 1 in human HEK293 cell lysate assessed as residual activity at 0.019 uM after 1 hr; type: cell-free
[9] = target: T2, Proteasome component C5 (Homo sapiens); assay: Inhibition of 26S proteasome beta 1 in human HEK293 cell lysate assessed as residual activity at 1.5 uM after 1 hr; type: cell-free
[10] = target: T2, Proteasome component C5 (Homo sapiens); assay: Displacement of fluorescent labeled MV151 from 26S proteasome beta 1 in human HEK293 cell lysate assessed as disappearance of band at 0.1 to 1 uM after 1 hr by SDS-PAGE; type: cell-free
[11] = target: T2, Proteasome component C5 (Homo sapiens); assay: Inhibition of 26S proteasome beta 1 in human HEK293 cell lysate assessed as residual activity at 13.5 uM after 1 hr; type: cell-free
[12] = target: T2, Proteasome component C5 (Homo sapiens); assay: Inhibition of 26S proteasome beta 1 in human HEK293 cell lysate assessed as residual activity at 0.167 uM after 1 hr; type: cell-free
[13] = target: T2, Proteasome component C5 (Homo sapiens); assay: Inhibition of 26S proteasome beta 1 in human HEK293 cell lysate assessed as residual activity at 0.5 uM after 1 hr; type: cell-free
[14] = target: T2, Proteasome component C5 (Homo sapiens); assay: Inhibition of 26S proteasome beta 1 in human HEK293 cell lysate assessed as residual activity at 0.002 uM after 1 hr; type: cell-free
[15] = target: Proteasome Macropain subunit (Homo sapiens) (UniProt P49721); assay: Inhibition of 26S proteasome beta 2 in human HEK293 cell lysate assessed as residual activity at 0.006 uM after 1 hr; type: cell-free
[16] = target: Proteasome subunit beta type-5 (Homo sapiens) (UniProt P28074); assay: Inhibition of 26S proteasome beta 5 in human HEK293 cell lysate assessed as residual activity at 0.006 uM after 1 hr
[17] = target: Proteasome Macropain subunit (Homo sapiens) (UniProt P49721); assay: Inhibition of 26S proteasome beta 2 in human HEK293 cell lysate assessed as residual activity at 0.019 uM after 1 hr; type: cell-free
[18] = target: Proteasome subunit beta type-5 (Homo sapiens) (UniProt P28074); assay: Inhibition of 26S proteasome beta 5 in human HEK293 cell lysate assessed as residual activity at 0.167 uM after 1 hr
[19] = target: Proteasome Macropain subunit (Homo sapiens) (UniProt P49721); assay: Inhibition of 26S proteasome beta 2 in human HEK293 cell lysate assessed as residual activity at 0.167 uM after 1 hr; type: cell-free
[20] = target: Proteasome subunit beta type-5 (Homo sapiens) (UniProt P28074); assay: Inhibition of 26S proteasome beta 5 in human HEK293 cell lysate assessed as residual activity at 0.001 uM after 1 hr
[21] = target: Proteasome subunit beta type-5 (Homo sapiens) (UniProt P28074); assay: Inhibition of 26S proteasome beta 5 in human HEK293 cell lysate assessed as residual activity at […] after 1 hr; remark: listed apart in the source
[22] = target: Proteasome subunit beta type-5 (Homo sapiens) (UniProt P28074); assay: Inhibition of 26S proteasome beta 5 in human HEK293 cell lysate assessed as residual activity at 0.019 uM after 1 hr
[23] = target: Proteasome Macropain subunit (Homo sapiens) (UniProt P49721); assay: Inhibition of 26S proteasome beta 2 in human HEK293 cell lysate assessed as residual activity at 0.002 uM after 1 hr; type: cell-free
[24] = target: Proteasome subunit beta type-5 (Homo sapiens) (UniProt P28074); assay: Inhibition of 26S proteasome beta 5 in human HEK293 cell lysate assessed as residual activity at 0.5 uM after 1 hr
[25] = target: Proteasome subunit beta type-5 (Homo sapiens) (UniProt P28074); assay: Inhibition of 26S proteasome beta 5 in human HEK293 cell lysate assessed as residual activity at 0.002 uM after 1 hr
[26] = target: T2, Proteasome component C5 (Homo sapiens); assay: Inhibition of 26S proteasome beta 1 in human HEK293 cell lysate assessed as residual activity at 0.006 uM after 1 hr; type: cell-free
[27] = target: T2, Proteasome component C5 (Homo sapiens); assay: (§2) Inhibition of 26S proteasome beta 1 in human HEK293 cell lysate assessed as residual activity at […] after 1 hr; type: cell-free
[28] = target: Proteasome Macropain subunit (Homo sapiens) (UniProt P49721); assay: Inhibition of 26S proteasome beta 2 in human HEK293 cell lysate assessed as residual activity at 1.5 uM after 1 hr; type: cell-free
[29] = target: Proteasome Macropain subunit (Homo sapiens) (UniProt P49721); assay: Inhibition of 26S proteasome beta 2 in human HEK293 cell lysate assessed as residual activity at 0.5 uM after 1 hr; type: cell-free
[30] = target: Proteasome Macropain subunit (Homo sapiens) (UniProt P49721); assay: as §1; type: cell-free; remark: listed apart in the source
[31] = target: T2, Proteasome component C5 (Homo sapiens); assay: as §2; type: cell-free; remark: listed apart in the source
[32] = target: Proteasome subunit beta type-5 (Homo sapiens) (UniProt P28074); assay: Inhibition of 26S proteasome beta 5 in human HEK293 cell lysate assessed as residual activity at 1.5 uM after 1 hr
[33] = target: Proteasome Macropain subunit (Homo sapiens) (UniProt P49721); assay: Displacement of fluorescent labeled MV151 from 26S proteasome beta 2 in human HEK293 cell lysate assessed as residual activity at 100 uM after 1 hr by SDS-PAGE; type: cell-free
[34] = target: T2, Proteasome component C5 (Homo sapiens); assay: Displacement of fluorescent labeled MV151 from 26S proteasome beta 1 in human HEK293 cell lysate assessed as residual activity at 1 uM after 1 hr by SDS-PAGE; type: cell-free
[35] = target: T1, Proteasome Macropain subunit MB1 (Homo sapiens); assay: Displacement of fluorescent labeled MV151 from 26S proteasome beta 5 in human HEK293 cell lysate assessed as residual activity at 100 uM after 1 hr by SDS-PAGE; type: cell-free
[36] = target: T2, Proteasome component C5 (Homo sapiens); assay: Displacement of fluorescent labeled MV151 from 26S proteasome beta 1 in human HEK293 cell lysate assessed as residual activity at 100 uM after 1 hr by SDS-PAGE; type: cell-free
[37] = target: T1, Proteasome Macropain subunit MB1 (Homo sapiens); assay: Displacement of fluorescent labeled MV151 from 26S proteasome beta 5 in human HEK293 cell lysate assessed as residual activity at 1 uM after 1 hr by SDS-PAGE; type: cell-free
[38] = target: Proteasome Macropain subunit (Homo sapiens) (UniProt P49721); assay: Displacement of fluorescent labeled MV151 from 26S proteasome beta 2 in human HEK293 cell lysate assessed as residual activity at 1 uM after 1 hr by SDS-PAGE; type: cell-free

Structure (SMILES) | Activity [1] [%] | Activity [3] [%] | Activity [4] [%] | Activity [5] [%] | Activity [6] [%] | Activity [7] [%] | Activity [8] [%] | Activity [9] [%] | Activity [11] [%] | Activity [12] [%] | Activity [13] [%] | Activity [14] [%] | Activity [15] [%] | Activity [16] [%] | Activity [17] [%] | Activity [18] [%] | Activity [19] [%] | Activity [20] [%] | Activity [21] [%] | Activity [22] [%] | further results
CC(C)C[C@H](NC(=O)[C@H](Cc1cc(C(F)(F)F)cc(C(F)(F)F)c1)NC(=O)c1cnccn1)B1OC2C[C@@H]3C[C@@H](C3(C)C)[C@]2(C)O1 (some centres undefined) | 122 | 38.5 | 100 | 14.3 | 0.7 | 99.9 | 92.3 | 3.1 | 0.5 | 45.2 | 17 | 102 | 109 | 23.3 | 118 | 8.8 | 94.3 | 35.5 | 2.7 | 21.2 | Activity [2]: Active; Activity [10]: Active; Activity [23]: 93.1%; Activity [24]: 7.7%; Activity [25]: 41.3%; Activity [26]: 93.2%; Activity [27]: 1.1%; Activity [28]: 78.5%; Activity [29]: 103%; Activity [30]: 63.7%; Activity [31]: 79.1%; Activity [32]: 5.4%
CC(C)C[C@H](NC(=O)[C@H](Cc1cc(C(F)(F)F)cc(C(F)(F)F)c1)NC(=O)[C@H](Cc1ccccc1)NC(=O)[C@H](Cc1ccccc1)N=[N+]=[N-])C(=O)[C@@]1(C)CO1 | 111 | 57.9 | 106 | 66.2 | 3 | 106 | 98.1 | 82.8 | 50.3 | 93.5 | 89.9 | 102 | 105 | 92.2 | 111 | 34.9 | 112 | 109 | 5.2 | 100 | Activity [33]: 92%; Activity [34]: 156%; Activity [35]: 2.6%; Activity [23]: 99.6%; Activity [24]: 19.7%; Activity [36]: 61%; Activity [25]: 97%; Activity [37]: 45%; Activity [26]: 97.8%; Activity [27]: 67.7%; Activity [28]: 97.3%; Activity [29]: 99.1%; Activity [30]: 77.1%; Activity [38]: 4.3%; Activity [31]: 103%; Activity [32]: 9.5%
CC(C)C[C@H](NC(=O)[C@H](Cc1ccccc1)NC(=O)[C@H](Cc1cc(C(F)(F)F)cc(C(F)(F)F)c1)NC(=O)[C@H](Cc1ccccc1)N=[N+]=[N-])C(=O)[C@@]1(C)CO1 | 105 | 73.4 | 118 | 70.5 | 5.1 | 112 | 94.7 | 104 | 61.3 | 85.7 | 104 | 92.8 | 100 | 93.5 | 100 | 44.3 | 98.4 | 116 | 11 | 94.4 | Activity [33]: 128%; Activity [34]: 167%; Activity [35]: 3%; Activity [23]: 104%; Activity [24]: 20.5%; Activity [36]: 80%; Activity [25]: 101%; Activity [37]: 78%; Activity [26]: 96.9%; Activity [27]: 90.3%; Activity [28]: 113%; Activity [29]: 110%; Activity [30]: 92.9%; Activity [38]: 3.1%; Activity [31]: 116%; Activity [32]: 9.8%
